Measurements taken from patent publication US5610160A, “Topical 5-fluorouracil prodrug composition and method” (priority 1994, dated 1997).
In brackets after ≈: the same amount, converted by molar mass. Read-outs that look alike come from different tables or passages of the source.

What was measured:
[1] = Diffusion cell experiments: delivery of 5-FU through hairless mouse skin; type: in vitro ADME; conditions: for Ji, flux of 5-FU through the skin: from suspensions of prodrugs in IPM, hairless mouse skin; for Cs, amount of 5-FU in the skin: leached from hairless mouse skin in 24 hours subsequent to application of prodrug in vehicle for 48 hours; for Jj, flux of theophylline through the skin after application of the prodrug/formulation (relative damage): theophylline from suspension in PG
Procedure: The diffusion cell experiments were conducted as described by Sloan et al in J. Invest.
^b Flux in mg/cm^2 hour of 5FU from suspensions of prodrugs in
^c Amount of 5FU in mg leached from hairless mouse skin in 24 hours
subsequent to application of prodrug in vehicle for 48 hours.
^d Flux in mg/cm^2 hour of theophylline from suspension in PG.

[2] = Solubility of prodrug in isopropyl myristate (IPM); conditions: isopropyl myristate, organic solvent or mixture
Procedure: The results from the determination of the physicochemical properties are recorded in the tables as CIPM (the saturated solubility of the prodrug in the isopropyl myristate (IPM) vehicle/formulation in which the prodrug was applied to the mouse skins), K (the partition coefficients of the prodrug between IPM and a pH 4.0 acetate buffer) and Cw (the solubility of the prodrug in pH 4.0 acetate buffer calculated from the partition coefficient and the IPM solubility).

[3] = cited from earlier work
skin malignancies = conditions: topical, cited from earlier work
[4] = 22° C.; Buur et al (1986); compound 11 from Buur et al (1987); cited from earlier work
[5] = 37° C., 0.05 M phosphate buffer pH 7.4; Buur et al (1986); compound 11 from Buur et al (1987); cited from earlier work
[6] = 37° C., 80% human plasma; Buur et al (1986); compound 11 from Buur et al (1987); cited from earlier work
[7] = shake-flask, brief shaking, IPM phase analyzed immediately; conditions: 23 ± 1 °C
not told = conditions: 22 °C; cited from earlier work
[8] = Partition coefficient between IPM and pH 4.0 acetate buffer; type: physicochemical; conditions: 23 ± 1° C.
Source text: ^a Partition coefficient between IPM and pH 4.0 acetate buffer at 23

O=c1[nH]cc(F)c(=O)[nH]1 [Compound 5-FU, 5-fluorouracil]
Ji, flux of 5-FU through the skin [1]: 0.0311 mg/cm^2 hour | Cs, amount of 5-FU in the skin [1]: 0.48 mg | Jj, flux of theophylline through the skin after application of the prodrug/formulation (relative damage) [1]: 0.215 mg/cm^2 hour | solubility [2]: 6.4 µg/mL (≈ 0.0492 mM) | log K, octanol/pH 4.0 acetate buffer ([3]; octanol/acetate buffer, pH 4): -0.83 | treating superficial lesions (skin malignancies; actinic keratoses and basal cell carcinomas): successful | treating deeper lesions or actinic keratoses of the extremities (skin malignancies): ineffective | Cw, solubility at pH 4.0 acetate buffer [4]: 11.1 mg/ml

CCCCCCOC(=O)n1cc(F)c(=O)[nH]c1=O [Compound 11]
Ji, flux of 5-FU through the skin [1]: 0.195 mg/cm^2 hour | Cs, amount of 5-FU in the skin [1]: 1.38 mg | Jj, flux of theophylline through the skin after application of the prodrug/formulation (relative damage) [1]: 0.321 mg/cm^2 hour | solubility [2]: 8700 µg/mL (≈ 33.7 mM) | log K, octanol/pH 4.0 acetate buffer ([3]; 22° C., J. Pharm. Sci. 75, 522, Buur et al (1986), compound 11 from Int. J. Pharm. 36, 41 (1987)): 2.04 | Half-life, Buffer [5]: 9.17 h | Half-life, 80% Plasma [6]: 2.0 min | log partition isopropyl myristate / pH 4.0 acetate buffer [7]: 31.1 concentration ratio | log partition octanol / pH 4.0 acetate buffer (not told): 2.04 log10 concentration ratio | Cw, solubility at pH 4.0 acetate buffer [4]: 1.5 mg/ml | K, partition coefficient between IPM and pH 4.0 acetate buffer [8]: 31.1
